The experiment concerns the target canine TRPM8 (Canis lupus familiaris, UniProt Q1A7N1). As to the kind of experiment: In vitro canine TRPM8 functional assay (Ca2+-sensitive fluorescent dye, icilin activation). It counts as cell-based. As for the experimental part: The functional activity of representative compounds of the formula (I) of the present invention was quantified by measuring changes in intracellular calcium concentration using a Ca^2+-sensitive fluorescent dye. The changes in fluorescent signal were monitored by a fluorescence plate reader, either a FLIPR™ (Molecular Devices) or FDSS (Hamamatsu).
HEK293 cells stably expressing canine TRPM8 were routinely grown as monolayers in Dulbecco's minimum essential medium supplemented with 10% FBS, 2 mM L-glutamine, 100 units/mL penicillin, 100 ug/mL streptomycin and 400 μg/mL G418. Cells were maintained in 5% CO2 at 37° C. At 24 hr prior to assay, cells were seeded in black wall, clear-base poly-D-lysine coated 384-well plates (BD Biosciences, NJ, USA) at a density of 5,000 cells per well in culture medium and grown overnight in 5% CO2 at 37° C. On assay day, growth media was removed, and cells were loaded with Calcium 3 Dye (Molecular Devices) for 35 min at 37° C., under 5% CO2 and then incubated for 25 min at room temperature and atmosphere. Subsequently, cells were tested for agonist-induced increases in intracellular Ca^2+ levels using FLIPR™ or FDSS. Cells were treated with compounds of the formula (I) at varying concentrations and intracellular Ca^2+ was measured for 5 min prior to the addition of icilin to each well to achieve a final concentration that produces an approximately 80% maximal response.
Maximal fluorescence intensity (FI) achieved upon addition of icilin was exported from the FLIPR™ or FDSS software and further analyzed using GraphPad Prism 3.02 (Graph Pad Software Inc., CA, U.S.A.). Basal FI was subtracted prior to normalizing data to percent of maximal response. Curves were generated using the average of quadruplicate wells for each data point using nonlinear regression of either sigmoidal dose response or sigmoidal dose response (variable slope). Finally, the EC50 and IC50 values were calculated with the best-fit curve determined by GraphPad Prism

Setting [1] is: 0.2 μM compound, HEK293 cells stably expressing canine TRPM8, icilin-induced Ca2+ response.
Setting [2] is: HEK293 cells stably expressing canine TRPM8, icilin-induced Ca2+ response, eight-point concentration-response.
Where [3] appears, read: HEK293, 0.2 μM compound, HEK293 cells stably expressing canine TRPM8, icilin-induced Ca2+ response.

Where a name gives a salt, the structure may show the parent alone. Read-outs that look alike come from different tables or passages of the source.

One may read the inhibition as the change of the read-out against control, counted positive when it falls. As a reminder, the IC50 is the concentration at which inhibition is half-maximal. Low values mean greater potency in that assay, high ones weaker potency in that assay.

canine TRPM8, sequence (Q1A7N1 1-1104): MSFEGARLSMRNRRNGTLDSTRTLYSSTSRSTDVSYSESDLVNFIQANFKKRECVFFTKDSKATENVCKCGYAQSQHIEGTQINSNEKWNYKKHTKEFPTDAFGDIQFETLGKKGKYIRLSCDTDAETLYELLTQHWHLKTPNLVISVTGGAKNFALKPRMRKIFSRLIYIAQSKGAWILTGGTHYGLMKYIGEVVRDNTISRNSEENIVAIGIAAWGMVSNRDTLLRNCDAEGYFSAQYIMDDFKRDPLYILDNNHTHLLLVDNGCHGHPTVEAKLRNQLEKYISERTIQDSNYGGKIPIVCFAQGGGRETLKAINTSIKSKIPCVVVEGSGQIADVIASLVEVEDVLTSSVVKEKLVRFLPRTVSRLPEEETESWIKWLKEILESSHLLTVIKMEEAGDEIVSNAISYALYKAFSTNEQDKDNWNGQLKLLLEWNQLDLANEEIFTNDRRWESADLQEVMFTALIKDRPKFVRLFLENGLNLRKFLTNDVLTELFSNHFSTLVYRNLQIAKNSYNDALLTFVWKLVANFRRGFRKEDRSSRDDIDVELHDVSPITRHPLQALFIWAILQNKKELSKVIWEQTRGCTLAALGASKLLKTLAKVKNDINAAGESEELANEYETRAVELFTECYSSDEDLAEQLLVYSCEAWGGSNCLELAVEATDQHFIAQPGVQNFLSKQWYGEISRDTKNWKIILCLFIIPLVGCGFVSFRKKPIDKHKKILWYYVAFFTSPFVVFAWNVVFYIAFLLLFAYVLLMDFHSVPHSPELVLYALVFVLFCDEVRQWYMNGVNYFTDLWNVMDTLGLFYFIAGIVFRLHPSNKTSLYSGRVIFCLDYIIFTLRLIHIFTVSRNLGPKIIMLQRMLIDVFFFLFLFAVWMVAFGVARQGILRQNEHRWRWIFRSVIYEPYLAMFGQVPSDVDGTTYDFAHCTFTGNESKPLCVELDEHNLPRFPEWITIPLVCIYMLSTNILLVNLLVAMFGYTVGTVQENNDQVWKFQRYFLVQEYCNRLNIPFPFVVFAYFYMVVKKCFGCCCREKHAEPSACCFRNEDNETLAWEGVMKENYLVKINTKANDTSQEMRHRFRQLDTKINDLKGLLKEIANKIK

Regarding `CN(C)CCOc1nc(-c2ccccc2Cl)cc2nc(-c3c(Cl)c(C(C)(C)C)nn3C)[nH]c12` [Compound 56, {2-[2-(5-tert-Butyl-4-chloro-2-methyl-2H-pyrazol-3-yl)-6-(2-chloro-phenyl)-3H-imidazo[4,5-c]pyridin-4-yloxy]-ethyl}-dimethyl-amine], the inhibition at 0.2 µM under setting [1] turned out to be 99%. In addition, under setting [2], it took 24 nM to reach half-maximal inhibition (IC50).
For `CC(C)(C)c1cc(-c2nc3nc(-c4ccccc4OC(F)(F)F)ccc3[nH]2)on1` [Compound 29, 2-(3-tert-Butyl-isoxazole-5-yl)-5-(2-trifluoromethoxy-phenyl)-1H-imidazo[4,5-b]pyridine] the same measures were 99% and 33 nM.
In the case of `COc1cc(-c2ccccc2C(F)(F)F)nc2nc(-c3onc(C(C)(C)C)c3C#N)[nH]c12` [Compound 70, 3-tert-Butyl-5-[7-methoxy-5-(2-trifluoromethyl-phenyl)-1H-imidazo[4,5-b]pyridin-2-yl]-isoxazole-4-carbonitrile methanesulfonic acid salt], the inhibition at 0.2 µM under setting [1] was determined as 36%.
Regarding `COc1nc(-c2ccccc2C(F)(F)F)cc2[nH]c(-c3onc(C(C)(C)C)c3C#N)nc12` [Compound 13, 3-tert-Butyl-5-[4-methoxy-6-(2-trifluoromethyl-phenyl)-1H-imidazo[4,5-c]pyridine-2-yl]-isoxazole-4-carbonitrile methanesulfonic acid salt], the inhibition at 0.2 µM under setting [1] came to 94%. This compound also came in with a 50% inhibitory concentration (IC50) under setting [2] of 46 nM.
For `Cn1nc(C(C)(C)C)c(Cl)c1-c1nc2cc(-c3ccccc3Cl)nc(OCC(F)(F)F)c2[nH]1` [Compound 89, 2-(5-tert-Butyl-4-chloro-2-methyl-2H-pyrazol-3-yl)-6-(2-chlorophenyl)-4-(2,2,2-trifluoro-ethoxy)-3H-imidazo[4,5-c]pyridine sodium salt] the same measures were 100% and 0.53 nM.
Regarding `Cn1nc(C(C)(C)C)cc1-c1nc2cc(-c3ccccc3F)ncc2[nH]1` [Compound 42, 2-(5-tert-Butyl-2-methyl-2H-pyrazol-3-yl)-6-(2-fluoro-phenyl)-3H-imidazo[4,5-c]pyridine hydrochloride], the inhibition at 0.2 µM under setting [1] was 75%. The compound further gave a half-maximal inhibitory concentration (IC50) under setting [2] of 59 nM.
For `Cn1nc(C(C)(C)C)c(Cl)c1-c1nc2nc(-c3ccccc3Cl)ccc2[nH]1` [Compound 23, 2-(5-tert-Butyl-4-chloro-2-methyl-2H-pyrazol-3-yl)-5-(2-chloro-phenyl)-1H-imidazo[4,5-b]pyridine hydrochloride], the inhibition at 0.2 µM under setting [3] came to 96%.
For the compound `Cn1nc(C(C)(C)C)c(Cl)c1-c1nc2nc(-c3ccccc3C(F)(F)F)ccc2[nH]1` [Compound 32, 2-(5-tert-Butyl-4-chloro-2-methyl-2H-pyrazol-3-yl)-5-(2-trifluoromethyl-phenyl)-1H-imidazo[4,5-b]pyridine hydrochloride], under setting [1], the inhibition at 0.2 µM stood at 100%. The midpoint of inhibition under setting [2], the IC50, lay at 7.6 nM.
On to `Cn1nc(C(C)(C)C)c(Cl)c1-c1nc2cc(-c3ccccc3C(F)(F)F)nc(OCCN3CCCC3)c2[nH]1` [Compound 52, 2-(5-tert-Butyl-4-chloro-2-methyl-2H-pyrazol-3-yl)-4-(2-pyrrolidin-1-yl-ethoxy)-6-(2-trifluoromethyl-phenyl)-3H-imidazo[4,5-c]pyridine], for which the inhibition at 0.2 µM under setting [3] was determined as 80%. This compound also came in with an IC50 under setting [2] of 79 nM.
As to `Cn1nc(C(C)(C)C)c(C#N)c1-c1nc2cc(-c3ccccc3C(F)(F)F)nc(OCC(F)(F)F)c2[nH]1` [Compound 15, 3-tert-Butyl-1-methyl-5-[4-(2,2,2-trifluoro-ethoxy)-6-(2-trifluoromethyl-phenyl)-3H-imidazo[4,5-c]pyridine-2-yl]-1H-pyrazole-4-carbonitrile methanesulfonic acid salt], the inhibition at 0.2 µM under setting [1] worked out at 100%. Moreover, under setting [2], the half-inhibitory concentration (IC50) amounted to 1.8 nM.
As to `Cn1nc(C(C)(C)C)c(Cl)c1-c1nc2nc(-c3ccccc3OC(F)(F)F)cnc2[nH]1` [Compound 94, 2-(5-tert-Butyl-4-chloro-2-methyl-2H-pyrazol-3-yl)-5-(2-trifluoromethoxy-phenyl)-1H-imidazo[4,5-b]pyrazine], the inhibition at 0.2 µM under setting [1] is 99%. Also, under setting [2], inhibition was half-maximal at 22.5 nM (IC50).
Regarding `Cl.Cn1nc(C(C)(C)C)cc1-c1nc2cc(-c3ccccc3C(F)(F)F)ncc2[nH]1` [Compound 40, 2-(5-tert-Butyl-2-methyl-2H-pyrazol-3-yl)-6-(2-trifluoromethyl-phenyl)-3H-imidazo[4,5c]pyridine hydrochloride], the “% Inh @ 0.2 μM” value worked out at 86% and the IC50 turned out to be 59 nM.
As for `COc1nc(-c2ccccc2Cl)cc2nc(-c3csc(C(C)C)c3)[nH]c12` [Compound 98, 6-(2-Chloro-phenyl)-2-(5-isopropyl-thiophen-3-yl)-4-methoxy-3H-imidazo[4,5-c]pyridine], under setting [1], the inhibition at 0.2 µM worked out at 100%. The IC50 under setting [2] was determined as 14 nM.
For `COc1c(C(C)(C)C)nn(C)c1-c1nc2cc(-c3ccccc3C(F)(F)F)nc(OC)c2[nH]1` [Compound 79, 2-(5-tert-Butyl-4-methoxy-2-methyl-2H-pyrazol-3-yl)-4-methoxy-6-(2-trifluoromethyl-phenyl)-3H-imidazo[4,5-c]pyridine methanesulfonic acid salt] the same measures were 101% and 20 nM.
`Cn1nc(C(C)(C)C)c(C#N)c1-c1nc2cc(-c3ccccc3)ncc2[nH]1` [Compound 47, 3-tert-Butyl-1-methyl-5-(6-phenyl-3H-imidazo[4,5-c]pyridin-2-yl)-1H-pyrazole-4-carbonitrile hydrochloride]: the inhibition at 0.2 µM under setting [1] was 56%.
For the compound `Cn1nc(C(C)(C)C)c(Cl)c1-c1nc2cc(-c3ccccc3C(F)(F)F)nc(C#N)c2[nH]1` [compound 60, 2-(5-tert-butyl-4-chloro-2-methyl-2H-pyrazol-3-yl)-6-(2-trifluoromethyl-phenyl)-3H-imidazo[4,5-c]pyridine-4-carbonitrile benzenesulfonic acid salt], the inhibition at 0.2 µM under setting [1] was determined as 99%.
Turning to `Cn1nc(C(C)(C)C)c(Cl)c1-c1nc2cc(-c3ccccc3Cl)nc(OCCO)c2[nH]1` [Compound 58, 2-[2-(5-tert-Butyl-4-chloro-2-methyl-2H-pyrazol-3-yl)-6-(2-chloro-phenyl)-3H-imidazo[4,5-c]pyridin-4-yloxy]-ethanol], the inhibition at 0.2 µM under setting [1] is 101%. Moreover, the IC50 under setting [2] came out at 2 nM.
As to `Cc1nc(-c2ccccc2C(F)(F)F)nc2nc(-c3cc(C(C)(C)C)nn3C)[nH]c12` [Compound 35, 8-(5-tert-Butyl-2-methyl-2H-pyrazol-3-yl)-6-methyl-2-(2-trifluoromethyl-phenyl)-7H-purine trifluoroacetic acid salt], the inhibition at 0.2 µM under setting [1] is 67%.
For `COc1nc(-c2ccccc2Cl)cc2nc(-c3cnn(C(C)(C)C)c3C)[nH]c12` [Compound 100, 2-(1-tert-Butyl-5-methyl-1H-pyrazol-4-yl)-6-(2-chloro-phenyl)-4-methoxy-3H-imidazo[4,5-c]pyridine sodium salt], the inhibition at 0.2 µM under setting [1] was determined as 94%. Under setting [2], inhibition was half-maximal at 61.3 nM (IC50).
As for `Cn1nc(C(C)(C)C)c(C#N)c1-c1nc2cc(-c3ccccc3C(F)(F)F)nc(Cl)c2[nH]1` [Compound 75, 3-tert-Butyl-5-[4-chloro-6-(2-trifluoromethyl-phenyl)-3H-imidazo[4,5-c]pyridin-2-yl]-1-methyl-1H-pyrazole-4-carbonitrile Hydrochloride], under setting [1], the inhibition at 0.2 µM is 100%. Besides, under setting [2], half-maximal inhibition (IC50) was put at 24 nM.
